Paper PMC7876453, “Targeting Indoleamine 2,3-Dioxygenase in Cancer Models Using the Novel Small Molecule Inhibitor NTRC 3883-0” (Frontiers in Immunology, 2021)
Like-named read-outs stand apart in the source and are kept apart here. Values belong to the compound of their own block, whether it stands above or below them.

Key:
[1] = test system: CD8-positive T cells co-cultured with HEK-hIDO1 cells; experiment: co-culture assay of HEK-hIDO1 cells with PBMCs, CFSE proliferation; format: cell-based, human; conditions: 7.5 µM Trp; 10 µM NTRC 3883-0, 1 µM epacadostat; 5 days
[2] = test system: IFNγ-stimulated adherent cell samples isolated from ascites of ovarian cancer patients; experiment: Trp-catabolizing activity in IFNγ-stimulated ascites cell samples; format: cell-based; conditions: Homo sapiens
Method: (§1) Ascites was collected from patients with a primary diagnosis of advanced epithelial ovarian cancer during paracentesis for diagnostics or symptom relieve, or during primary debulking surgery. Ascites was filtered and cells were collected by centrifugation as described ([23]). To enrich for tumor cells, ascites cell samples were allowed to adhere overnight to tissue culture plastic. The cell samples were then cultured for 2–3 weeks in advanced RPMI medium (ThermoFisher), supplemented with 10% FBS, 1% glutamax and 1% P/S, with 2 or 3 times passaging of the cells. qPCR analyses of the MUC16, HE4, IDO1, and TDO2 genes were performed for all samples as described above. Five samples which could be cultured over multiple passages were analyzed for cell surface expression of mucin-16 and EpCAM by flow cytometry using FITC-conjugated anti-mucin-16 (AssayPro, #32189-05141) and APC-conjugated anti-EpCAM (Miltenyi, #130-111-117, RRID: AB_2657496) to assure that the cell cultures consisted of malignant cells. IDO1 mRNA and protein levels in these samples were analyzed as described above after incubation with or without 200 ng/ml IFNγ for 24 h. The collection of ascites and the research described was conducted with approval of the medical ethical committee of the Radboud university medical center and informed written consent from each subject.

[3] = test system: B16F10-mIDO1 subline j19 in female B6D2F1 mice; experiment: B16F10-mIDO1 syngeneic mouse model, intervention study; format: in vivo; conditions: 100 mg/kg p.o. b.i.d. from day 3
Text: For development of the mIDO1-overexpressing B16F10 mouse model, performed at Charles River Laboratories, female B6D2F1 mice were implanted subcutaneously with 1 × 10^6 parental B16F10 cells or B16F10-mIDO1 cells (subline i6 or j19) on day 0 with n = 10 mice per group. A tumor volume of 2000 mm^3 was used as the endpoint of the experiment for the individual animals. To determine the optimal inoculation cell concentration, mice were implanted with 3 × 10^5, 1 × 10^5 or 3 × 10^4 parental or mIDO1-overexpressing B16F10 cells (subline j19) with n = 5 mice per group. The same endpoint of the experiment was used as described above. […] For the intervention study, 3 x 10^5 cells of the B16F10-mIDO1 subline j19 were implanted on day 0, and treatment was started on day 3 with vehicle (DMSO, Kolliphor, 5% mannitol; […]. Four animals were excluded from analysis due to non-treatment-related deaths. Tumors and plasma were sampled 2 h post last dose.
[…]. After centrifugation, proteins were removed from the homogenized tissue supernatants and plasma samples by precipitation with methanol. The concentrations of inhibitor, Trp and Kyn were determined by LC-MS/MS.

[4] = test system: CT26 cells implanted subcutaneously into female BALB/c mice; experiment: CT26 mouse model, first study (ProQinase); format: in vivo; conditions: 50 mg/kg NTRC 3748-0 b.i.d., 100 mg/kg epacadostat q.d.
Method: For the first CT26 mouse model study, performed at ProQinase, 5 × 10^5 CT26 cells were implanted subcutaneously into female BALB/c mice on day 0. […] Tumor growth was monitored using caliper measurement 2 times weekly. The study was terminated at day 22 based on the tumor burden. Tumors and plasma were sampled 2 h post last dose.
(§2) Tissues were homogenized in PBS at a ratio of 1 mg per 10 μl using micro pellet pestles mounted on a Micro-Tube Homogenizer System (Thomas Scientific). After centrifugation, proteins were removed from the homogenized tissue supernatants and plasma samples by precipitation with methanol. The concentrations of inhibitor, Trp and Kyn were determined by LC-MS/MS.

IDO1 [5] = conditions: cited from earlier work
mTDO = biological target: T1, mTDO (Mus musculus, UniProt P48776); experiment: mouse TDO biochemical assay (NFK GreenScreen)
T1 construct: hexahistidine (C); made in house; host or cells: Escherichia coli
T1 sequence (P48776 whole entry): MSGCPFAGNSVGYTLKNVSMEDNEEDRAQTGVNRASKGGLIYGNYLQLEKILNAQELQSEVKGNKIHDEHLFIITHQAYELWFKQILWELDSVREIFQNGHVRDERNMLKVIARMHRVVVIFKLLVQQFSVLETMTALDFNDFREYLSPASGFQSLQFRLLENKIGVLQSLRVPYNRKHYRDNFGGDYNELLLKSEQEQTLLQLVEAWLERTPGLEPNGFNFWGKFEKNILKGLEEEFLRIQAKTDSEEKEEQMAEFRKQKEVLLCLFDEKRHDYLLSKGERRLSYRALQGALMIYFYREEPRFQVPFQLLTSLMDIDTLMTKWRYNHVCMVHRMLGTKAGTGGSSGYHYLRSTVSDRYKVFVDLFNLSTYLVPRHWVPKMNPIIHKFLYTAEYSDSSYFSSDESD
Method: (§3) Full-length recombinant human and mouse IDO1 were expressed in Escherichia coli with a hexahistidine tag at the N-terminus, and purified by affinity chromatography to > 95% purity, as described ([8]). Human and mouse TDO containing a C-terminal hexahistidine tag were analogously expressed and purified to > 95% purity ([8]). The inhibitory activity of compounds was determined with the NFK GreenScreen assay technology under the conditions as described ([8]), except for the reaction buffer for IDO1, which was replaced by 50 mM NaH2PO4, pH 7.0, supplemented with 0.01% Tween-20 and 1% glycerol. Inhibition of the CYP3A4 and CYP2D6 enzymes was determined with the P450-Glo™ Screening System with Luciferin-IPA (Promega, #V9920 and V9890). For determination of IC50 values, the effect of inhibitors was determined in 10-point duplicate dose-response curves. Graphs were fitted to a four-parameter logistics equation in XLfit (ID Business Solutions, Ltd., Guildford, UK) from which IC50 values were calculated.

[6] = test system: unstimulated adherent cell samples isolated from ascites of ovarian cancer patients; experiment: Trp-catabolizing activity in unstimulated ascites cell samples; format: cell-based, human; conditions: for IC50: Homo sapiens
Method: as §1

SW48 (hTDO) = biological target: T2, SW48 (hTDO) (Homo sapiens, UniProt P48775); experiment: cell-based assay, Trp-catabolizing activity in SW48 cells; conditions: Trp-catabolizing activity
T2 construct: host or cells: SW48 cells
T2 sequence (P48775 whole entry): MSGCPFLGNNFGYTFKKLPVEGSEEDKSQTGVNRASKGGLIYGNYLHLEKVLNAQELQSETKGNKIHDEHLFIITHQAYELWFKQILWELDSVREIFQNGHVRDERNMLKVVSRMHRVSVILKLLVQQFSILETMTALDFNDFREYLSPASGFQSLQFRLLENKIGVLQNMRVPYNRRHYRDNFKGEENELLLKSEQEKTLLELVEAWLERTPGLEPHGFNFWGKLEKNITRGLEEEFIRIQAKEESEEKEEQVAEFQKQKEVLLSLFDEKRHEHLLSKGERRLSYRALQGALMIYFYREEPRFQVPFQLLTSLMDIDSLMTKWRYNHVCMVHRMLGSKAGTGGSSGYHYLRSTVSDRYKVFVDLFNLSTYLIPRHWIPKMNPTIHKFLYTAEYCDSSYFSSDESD

[7] = test system: CT26 cells implanted subcutaneously into female BALB/c mice; experiment: CT26 mouse model, second study (Charles River); format: in vivo
Method: For the second study, performed at Charles River Laboratories, 3 × 10^5 CT26 cells were implanted subcutaneously into female BALB/c mice on day 0. […] Tumor growth was monitored using caliper measurement 3 times weekly. A tumor volume of 2000 mm^3 was used as the endpoint of the experiment for the individual animals. Tumors were sampled 2 h post last dose.
as §2

GL-261-mTDO = GL-261-mTDO (Mus musculus, UniProt P48776); experiment: cell-based assay, Trp-catabolizing activity in GL-261-mTDO cells; conditions: read-out: inhibition GL-261-mTDO
Sequence of GL-261-mTDO (P48776 whole entry): as the sequence (P48776 whole entry) above

HEK-hTDO = HEK-hTDO (Homo sapiens, UniProt P48775); experiment: cell-based assay, Trp-catabolizing activity in HEK-hTDO cells
Sequence of HEK-hTDO (P48775 whole entry): as the sequence (P48775 whole entry) above

human TDO = biological target: T3, human TDO (Homo sapiens, UniProt P48775); experiment: human TDO biochemical assay (NFK GreenScreen)
T3 construct: hexahistidine (C); made in house; host or cells: Escherichia coli
T3 sequence (P48775 whole entry): as above
Method: as §3

melanoma patients = conditions: combination with pembrolizumab; cited from earlier work
IDO1 [8] = conditions: cited from earlier work; remark: listed apart in the source
[9] = test system: cell lines used in this study; experiment: cell viability assays (ATPlite 1Step); conditions: in parallel with the cell-based assays
human IDO1 = biological target: T4, human IDO1 (Homo sapiens, UniProt P14902); experiment: human IDO1 biochemical assay (NFK GreenScreen); conditions: human IDO1 biochemical assay
T4 construct: Full-length recombinant human and mouse IDO1 were expressed in Escherichia coli with a hexahistidine tag at the N-terminus; hexahistidine (N); made in house; host or cells: Escherichia coli
T4 sequence (P14902 whole entry): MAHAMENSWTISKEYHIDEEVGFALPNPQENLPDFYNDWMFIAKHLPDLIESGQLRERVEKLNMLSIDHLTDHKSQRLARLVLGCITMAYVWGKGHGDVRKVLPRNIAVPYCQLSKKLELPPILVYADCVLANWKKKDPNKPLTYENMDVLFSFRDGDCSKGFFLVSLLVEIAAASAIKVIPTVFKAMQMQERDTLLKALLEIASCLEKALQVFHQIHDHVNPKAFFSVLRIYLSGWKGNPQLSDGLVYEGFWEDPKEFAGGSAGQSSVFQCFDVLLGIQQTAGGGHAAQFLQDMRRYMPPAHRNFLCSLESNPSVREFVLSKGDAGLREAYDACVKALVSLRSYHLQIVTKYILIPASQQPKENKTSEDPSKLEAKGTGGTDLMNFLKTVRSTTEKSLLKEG

A375 + IFNγ (hIDO1) = biological target: T5, A375 + IFNγ (hIDO1) (Homo sapiens, UniProt P14902); experiment: cell-based assay, Trp-catabolizing activity in IFNγ-stimulated A375 cells; conditions: IFNγ-stimulated A375 human melanoma cells
T5 construct: host or cells: A375 cells stimulated with IFNγ
T5 sequence (P14902 whole entry): as above

IDO1 [10] = conditions: cited from earlier work; remark: listed apart in the source
TDO = conditions: cited from earlier work

SMILES: NS(=O)(=O)NCCNc1nonc1C(=NO)Nc1ccc(F)c(Br)c1 [epacadostat, reference compound]
effect on IDO1-mediated inhibition of T cell proliferation (in words) [1]: relieved the inhibitory effect
IC50 ([2]; IFNγ-stimulated samples, read-out: IC50): 0.0083 µM
IC50 ([2]; IFNγ-stimulated, read-out: IC50 ASC 009): 0.0037 µM
IC50 ([2]; IFNγ-stimulated, read-out: IC50 ASC 010): 0.0093 µM
IC50 ([2]; IFNγ-stimulated, read-out: IC50 ASC 013): 0.009 µM
IC50 ([2]; IFNγ-stimulated, read-out: IC50 ASC 031): 0.0072 µM
IC50 ([2]; IFNγ-stimulated, read-out: IC50 ASC 041): 0.0074 µM
tumor growth corrected for the variation in time until tumor establishment [3]: delay in tumor growth
tumor growth in comparison to vehicle-treated animals [3]: no effect
Kyn levels in the tumor ([4]; LC-MS/MS, 2 h post last dose): considerable reduction of Kyn levels
tumor growth ([4]; p.o. from day 8): inhibition of tumor growth
clinical benefit of the combination over pembrolizumab plus placebo (IDO1 [5]): no clinical benefit
IC50 (mTDO): 0.225 µM
inhibition of basal Trp-catabolizing activity (in words) [6]: no or only minimal inhibition
IC50 ([6]; mean of samples, read-out: IC50 Mean): 7.73 µM
IC50 ([6]; read-out: IC50 ASC 010): 9.64 µM
IC50 ([6]; read-out: IC50 ASC 013): 9.94 µM
IC50 ([6]; read-out: IC50 ASC 031): 8.63 µM
IC50 ([6]; read-out: IC50 ASC 041): 4.31 µM
IC50 (SW48 (hTDO)): 6.46 µM
tumor growth ([7]; 100 mg/kg p.o. b.i.d. from day 8): no inhibition of tumor growth
Kyn levels in the tumor ([7]; LC-MS/MS, 2 h post last dose, 100 mg/kg p.o. b.i.d.): considerable reduction of Kyn levels
inhibition at 31.6 µM (GL-261-mTDO): 28%
IC50 (HEK-hTDO): 24.1 µM
times lower activity on TDO in the HEK-hTDO assay than in the biochemical assay (HEK-hTDO; cell-based versus biochemical TDO IC50): more than 400 times
IC50 (human TDO): 0.054 µM
objective response (melanoma patients): 12 out of 22
tolerability in human patients (IDO1 [8]): well tolerated
cytotoxicity [9]: not cytotoxic

SMILES: O=C1CN(C(=O)c2ccccc2)C(c2ccccc2)N1O (stereo not shown) [Compound 2a]
IC50 (human IDO1): > 31.6 µM
IC50 (A375 + IFNγ (hIDO1)): > 31.6 µM

SMILES: O=C1CN(C(=O)c2ccccc2)C(C2CCCCC2)N1O (stereo not shown) [Compound 2e]
IC50 (human IDO1): > 31.6 µM
IC50 (A375 + IFNγ (hIDO1)): > 31.6 µM

SMILES: N[C@@H](Cc1c[nH]c2ccccc12)C(=O)O [Trp, L-tryptophan]
K M,Trp of IDO1 (IDO1 [10]): 6 µM
K M,Trp of TDO (TDO): 190 µM

SMILES: O=C1CN(C(=O)c2ccccc2)C(c2ccccc2Br)N1O (stereo not shown) [Compound 2c]
IC50 (human IDO1): > 31.6 µM
IC50 (A375 + IFNγ (hIDO1)): > 31.6 µM

The next lines start with the values.

IC50 (human IDO1): 0.91 µM
IC50 (A375 + IFNγ (hIDO1)): 5.24 µM
SMILES: O=C1CN(C(=O)c2cccc(F)c2)C(c2cccc(Br)c2)N1O (stereo not shown) [Compound 3b]

IC50 (human IDO1): 1.78 µM
IC50 (A375 + IFNγ (hIDO1)): 12.5 µM
SMILES: O=C1CN(C(=O)c2ccccc2Br)C(c2cccc(Br)c2)N1O (stereo not shown) [Compound 3g]

IC50 (human IDO1): 2.17 µM
IC50 (A375 + IFNγ (hIDO1)): 4.59 µM
SMILES: O=C1CN(C(=O)c2c(F)cccc2F)[C@@H](c2cccc(Br)c2)N1O [Compound 3k]

IC50 (human IDO1): 4.02 µM
IC50 (A375 + IFNγ (hIDO1)): 21.7 µM
SMILES: Cc1ccccc1C(=O)N1CC(=O)N(O)C1c1cccc(Br)c1 (stereo not shown) [Compound 3d]

IC50 (human IDO1): 0.784 µM
IC50 (A375 + IFNγ (hIDO1)): 4.6 µM
SMILES: O=C1CN(C(=O)c2ccccc2Cl)C(c2cccc(Br)c2)N1O (stereo not shown) [Compound 3f]

IC50 (human IDO1): 0.479 µM
IC50 (A375 + IFNγ (hIDO1)): 1.15 µM
SMILES: O=C1CN(C(=O)c2ccccc2F)C(c2cccc(Br)c2)N1O (stereo not shown) [Compound 3c]
